# Results taken from patent US10342806B2, “Hormone treatment for age-related hearing loss-presbycusis” (priority 2014, dated 2019).
# Tests used:
# caspase-3 = assay: Caspase-3 expression in modiolar tissue samples; type: in vivo, mouse; details: ALD-treated middle-aged mice vs control middle-aged and young mice
# Procedure: During treatment, blood pressures were measured for the mice at 2 and 4 months after start of treatment. […] Death was confirmed by terminal phlebotomy/exsanguinations and perfusion. Cell lysates were collected and subject to western blot and RT-PCT analysis. The cells were placed in RIPA buffer and sonicated. Protein concentration was measured using the Bradford method. Proteins were separated by SDS-PAGE. The antibodies used for western blot were: anti-iNOS, nNOS and caspase-3 antibodies (Cell Signaling, Cambridge, Mass.). Total cellular RNA was extracted using the RNeasy Plus Mini Kit (74134). For RT-PCR, 10 ng of total cellular RNA was reverse transcribed and complementary DNA was amplified, using the Enhanced Avian HS RT-PCR-100 Kit (Sigma, HSRT20).
# SGK1 and Nedd4-2 = SGK1 and Nedd4-2 phosphorylation in HT-29 cells, Western blot; type: cell-based, human; details: ALD 1 μM, GSK 650394 50 μM, 9 h
# Procedure: FIG. 25 is a blot showing ALD modulation of NKCC1 via the ALD-SGK1-Nedd4-2 pathway. HT-29 cells were treated with ALD (1 μM) or ALD (1 μM)+GSK650394 (50 μM) for 9 h. Cell lysates were analyzed by Western blot as indicated. Blots are representative of 3 independent experiments. Left: controls. Middle: ALD increases the phosphorylations of SGK1 and Nedd4-2, concomitantly there is an increased induction of NKCC1 protein expression (1st row).
# Western blot. Cell lysates were prepared in RIPA buffer (Pierce 89901; Thermo Scientific, Waltham, Mass.) with protease inhibitor cocktail (78430; Thermo Scientific). Cell samples were homogenized in buffer, followed by centrifugation at 2,000 rpm for 10 min at 4° C. Supernatants were subjected to Western blot analysis by loading 200 μg of protein per lane, after the protein concentrations were determined by Bradford protein assay. Proteins were fractionated by SDS-PAGE gel electrophoresis and transferred to a PVDF blotting membrane (Whatman, Piscataway, N.J.). The blot was incubated with primary antibodies against β-actin and Na—K-2C1 cotransport protein (Cell Signaling, Danvers Mass.); primary antibodies for p-SGK1, SGK1, pNedd4-2, and Nedd4-2 were utilized (concentration 1:1,000). The secondary antibody was horseradish peroxidaseconjugated goat anti-rabbit IgG (1:2,000; Cell Signaling).
# NKCC1 mRNA = NKCC1 mRNA in HT-29 cells, semiquantitative and real-time RT-PCR; type: cell-based, human; details: ALD 1 μM, both RT-PCR methods
# Procedure: Relative quantitative RT-PCR. Total RNA was extracted using the RNAeasy Mini Kit (Qiagen, Valencia Calif.). […] Primers used for qRTPCR were as follows: […]
# The semiquantitative qRT-PCR reaction took place at 45° C. for 50 min. The competition between primer sets was excluded by adjusting the reaction condition.
# Then, the primer products were PCR amplified directly. A first cycle of 10 min. at 95° C., 45 s at 65° C., and 1 min at 72° C. was followed by 45 s at 95° C., 45 s at 65° C., and 1 min at 72° C. for 25 cycles. The conditions were chosen so that the RNAs analyzed were in the exponential phase of amplification. Each set of reactions always included a no-sample negative control. We usually performed a negative control containing RNA instead of cDNA to rule out genomic DNA contamination.
# The real-time RT-PCR reaction mixture was prepared using the SYBR-Green PCR Master Mix. Thermal cycling conditions were the same as in the semiquantitative method. Amplification specificity was checked using melting curves. Both negative and positive controls were included in each PCR reaction. All assays were carried out three times as independent PCR runs for each cDNA sample. […] Calculations of expression were performed with the […] method (Bustin, et al., Quantitative real-time RTPCR—a perspective. J Mol Endocrinol 34: 597-601, 2005).
# NKCC1 [1] = assay: 86Rb uptake in HT-29 cells; type: cell-based, human; details: HT-29 cells, 2, 4, 8, and 12 h after ALD
# Procedure: Cell culture and buffers. […] Arch Oral Biol 52: 411-416, 2007). […] J Cell Sci 112: […], 1999, Epple, et al., Early aldosterone effect in distal colon by transcriptional regulation of ENaC subunits. Am J Physiol Gastrointest Liver Physiol 278: […] Am J Physiol Cell Physiol 305: […]-[…], 2013). HT-29 cells were grown in DMEM media (Invitrogen, Carlsbad Calif.) with 10% FBS and antibiotics. Cells were grown in a humidified 95%/5% CO2 incubator at 37° C. Experiments were performed at 70-80% confluence. ^86Rb uptake. Similar to previous studies of NKCC1 activity (Gagnon & Delpire, Molecular determinants of hyperosmotically activated NKCC1-mediated K_/K_exchange. J Physiol 588: 3385-3396, 2010), cells were plated on six-well dishes and incubated at 37° C./5% CO2 until confluent. For the uptake, cells were first washed twice with 1 ml of isosmotic saline (140 mM NaCl, 5 mM KCl, 2 mM CaCl2, 0.8 mM MgSO4, 5 mM glucose, 5 mM HEPES buffered to pH 7.4, and 300.5 mosM). […] After a 20-min uptake, the radioactive solution was aspirated, and the cells were washed three times with 1 ml of ice-cold solution, lysed for 1 h with 500 μl of 0.25 N NaOH, and neutralized with 250 μl of glacial acetic acid. ^86Rb tracer activity was measured by using 150 μl of lysate for γ-scintillation counting. […]
# NKCC1 [2] = details: Jiang et al. 2003, cited from earlier work
structure (smiles),measurement,setting,value
"C[C@]12CCC(=O)C=C1CC[C@@H]1[C@@H]2[C@@H](O)C[C@]2(C=O)[C@@H](C(=O)CO)CC[C@@H]12 [ALD, aldosterone]",caspase-3 levels in modiolar tissue,caspase-3,reduced caspase-3 to levels below even the young mice samples
same,phosphorylation of SGK1 and Nedd4-2,SGK1 and Nedd4-2,increases the phosphorylation of SGK1 and Nedd4-2
same,NKCC1 mRNA,NKCC1 mRNA,no mRNA change
same,NKCC1 protein activity (86Rb uptake),NKCC1 [1],upregulated NKCC1 protein activity
same,"NKCC1 transcripts, real-time polymerase chain reaction",NKCC1 [2],did not elevate NKCC1 transcripts
same,increase in NKCC1 activity,"NKCC1 [2]; adrenalectomized rats, multiday treatment",63%
